# Reference: US11013677B2, “Methods and compositions to reduce staining for antibacterial oral care compositions” (Colgate-Palmolive Company, priority 2019, dated 2021)
# Assays:
# [1] = Bovine enamel model of CHX staining, FeCl3/CHX/chelator solutions, change in whiteness ΔW*; settings: for effect on teeth staining caused by CHX: when exposed to an iron solution (FeCl3 + CHX)
# Excerpt: (§1) A bovine enamel model was used to mimic CHX staining. The bovine teeth samples were kept hydrated until use. Baseline (L*, a*, and b*) measurements were taken of the samples before treatment using a spectroshade. The samples were then placed in a solution representing each of the treatments of Table 2 and then in artificial saliva. This cycle of soaking in the treatment and in artificial saliva was then repeated 14 times for each sample, with spectroshade measurements taken every two cycles immediately after soaking in the artificial saliva step (the samples were dabbed dry before measurements). Control samples soaked in FeCl3 alone and FeCl3+CHX solutions were also done.
# (§2) The L*, a*, and b* values were used to calculate the change in whiteness (ΔW*) for each tooth after treatment as compared to the baseline values using Formulas (1) and (2) below. W*=((a*−0)^2+(b*−0)^2+(L*−100)^2)^1/2 Formula (1) ΔW*=W*treated−W*baseline Formula (2)
# The more positive the value of ΔW*, the darker the tooth color is.
# [2] = Bovine enamel staining model, CHX oral care compositions with metal chelator, ΔW*; settings: for effect on CHX-staining (ΔW*): added to an oral care composition containing CHX
# Excerpt: as §1, §2
# Table 4 illustrates the effects of a metal chelator on CHX-caused staining when incorporating into an oral care composition including CHX according to implementations of the present disclosure. In particular, Table 4 illustrates the ΔW* for 5 oral care compositions containing CHX and measured similarly as described above. The more positive the value of ΔW*, the darker the tooth color is.
# Oral Care Composition #1 is a commercially available antimicrobial oral rinse with 0.12% chlorhexidine gluconate. Oral Care Compositions #2-#5 are the same as Oral Care Composition #1 except they include the specified amounts (by weight) of a metal chelator.
smiles,measurement,setting,value
"O=P(O)(O)CN(CP(=O)(O)O)CP(=O)(O)O [ATMP, aminotris(methylenephosphonic acid)]","staining reduction, comparison of chelators","[1]; ATMP versus IDA, every cycle",performed better at every cycle compared to IDA
same,effect on teeth staining caused by CHX,[1],decreased the amount of teeth staining caused by CHX
N[C@@H](CC(=O)O)C(=O)O [Aspartic acid],relative performance in reducing CHX-staining,[2]; 1 weight % added to commercial rinse (0.12% chlorhexidine gluconate),best performers
same,effect on CHX-staining (ΔW*),[2],significantly reduced the amount of CHX-staining
"[Cl][Fe]([Cl])[Cl] [FeCl3 alone, FeCl3]",ΔW* (change in whiteness),"[1]; Cycle 0 (baseline), more positive = darker tooth",0
same,ΔW* (change in whiteness),[1]; Cycle 4 of treatment/artificial saliva soaking,1.31
same,ΔW* (change in whiteness),[1]; Cycle 6 of treatment/artificial saliva soaking,0.83
same,ΔW* (change in whiteness),[1]; Cycle 8 of treatment/artificial saliva soaking,0.90
same,ΔW* (change in whiteness),[1]; Cycle 10 of treatment/artificial saliva soaking,0.64
same,ΔW* (change in whiteness),[1]; Cycle 14 of treatment/artificial saliva soaking,0.78
N[C@@H](CCC(=O)O)C(=O)O [Glutamic acid],relative performance in reducing CHX-staining,[2]; 0.2 weight % added to commercial rinse (0.12% chlorhexidine gluconate),best performers
same,effect on CHX-staining (ΔW*),[2],significantly reduced the amount of CHX-staining
O=C(O)CC(NC(CC(=O)O)C(=O)O)C(=O)O (stereo not shown) [Imminodisuccinic acid],effect on teeth staining caused by CHX,[1],decreased the amount of teeth staining caused by CHX
